How the values were obtained:
Assay type in all cases: physicochemical
[1] = Stability of recrystallized natamycin dispersion (rest activity by HPLC); settings: for Found natamycin activity (%): dispersion made according to Example 1
Method: This example describes the method that was used to analyze the amount of active natamycin in a water-based mixture of several components.
The method used was a HPLC analysis based on the International Dairy Federation (Provisional IDF Standard 140, 1992) with a Lichrosorb RP 8 column.
Detection was at 303 nm UV with a range of 0.1-4 mg/L with an injection volume of 20 μl. Sample preparation was carried out by weighing 2 g of prepared formulation with an accuracy of 1 mg in a measuring flask. 4 ml demineralized water (demiwater) was added and the mixture was stirred for 15 minutes to get a homogeneous suspension.
Subsequently, 80 ml ethanol was added and the mixture was stirred for 10 minutes.
After ultrasonic treatment, the solution was filled up to 100 ml with demiwater and then diluted and/or filtered (0.2 μm) before injecting. The amount of active natamycin was calculated as ppm against a series of standards.
This example describes the stability of recrystallized natamycin, a natamycin dispersion is made according to Example 1 and followed in time on stability.

[2] = Sedimentation (demixing) of natamycin dispersions in tapwater in glass tubes; settings: 1.5 g Delvocid equivalent in 1000 g tapwater, glass tube
Method: This example describes the test performed to analyze the sedimentation differences. 1.5 g Delvocid® was added to 998.5 gram tapwater and dispersed well by an electric top stirrer, type RW 20 DZM, from Janke & Kunkel equipped with a rushton stirrer. 1.5 gram of Delvocid® made according to Example 1 was mixed with tapwater to a final weight of 1000 gram by an electric top stirrer, type RW 20 DZM, from Janke & Kunkel equipped with a rushton stirrer. Both homogeneous mixtures were poured in glass tubes and observed in time on demixing.

[3] = Resuspendability of settled natamycin in a low viscous dispersion; settings: not touched for 26 days, glass tubes turned around once
Method: This example describes the test that was performed to analyze the resuspendability of settled natamycin in a low viscous dispersion. 1.5 gram Delvocid® was added to 998.5 gram tapwater and dispersed well by an electric top stirrer, type RW 20 DZM, from Janke & Kunkel equipped with a rushton stirrer. An amount equal to 1.5 gram Delvocid® made according to Example 1 was mixed with tapwater to a final weight of 1000 gram by an electric top stirrer, type RW 20 DZM, from Janke & Kunkel equipped with a rushton stirrer. Both homogeneous mixtures were poured in glass tubes and not touched for 26 days.

[4] = Crystal form stability of needle-shaped crystal suspension on storage; settings: 6 months of storage of suspension at 10° C.
Text: As discussed above a sediment of the needle-shaped crystals of the present invention can be easily brought back in the suspended state without exclusive stirring or shaking. Another advantage of the needle-shaped crystals is that this crystal form is stable.

[5] = Dissolution of natamycin in water as a function of pH
Method: According to another aspect of the present invention, there is provided a process to produce the needle-shaped crystals of the invention. In the first step of this process, natamycin is dissolved in an aqueous solution. The solution comprises at least 80 wt %, preferably at least 90 wt % more preferably at least 95 wt % and still more preferably at least 98 wt % and preferably at least 99 wt % water as solvent. […] Preferably, natamycin is dissolved at a pH ranged between 10 and 14, more preferably at a pH ranged between 11 and 13. In general, natamycin of a purity of more than 90 wt % (including hydrate) preferably of a purity of 95% is used.

stability ([1]; for at least six months) | Found natamycin activity (%) ([1]; incubation time 0 months) | Found natamycin activity (%) ([1]; incubation time 1 month) | Found natamycin activity (%) ([1]; incubation time 2 months) | Found natamycin activity (%) ([1]; incubation time 4 months) | Found natamycin activity (%) ([1]; incubation time 6 months) | demixing observed ([2]; time 0 minutes) | demixing observed ([2]; time 40 minutes) | demixing observed ([2]; time 60 minutes) | demixing observed ([2]; time 110 minutes) | demixing observed ([2]; time 180 minutes) | demixing observed ([2]; time 4320 minutes) | resuspendability of pellet [3] | dissolution in water ([5]; low pH (lower than 4.0) or high pH (above 10.0)) | dissolution in water ([5]; neutral pH) | SMILES | crystal form and mean length after storage [4]
very high | 100% | 100% | 99% | 100% | 98% | Homogeneous | Homogeneous | Homogeneous | Homogeneous | Homogeneous | Start demixing observed | almost completely resuspended | – | – | C[C@@H]1C/C=C/C=C/C=C/C=C/[C@H](O[C@@H]2O[C@H](C)[C@@H](O)[C@H](N)[C@@H]2O)C[C@@H]2O[C@](O)(C[C@@H](O)C[C@H]3O[C@@H]3/C=C/C(=O)O1)C[C@H](O)[C@H]2C(=O)O [Recrystallized natamycin, natamycin] | still contained needle-shaped crystals having the same mean length
– | – | – | – | – | – | Homogeneous | Start demixing observed | Two layers observed | Pellet formation | Pellet formation | Pellet and clear top layer | remained a solid pellet | – | – | C[C@@H]1C/C=C/C=C/C=C/C=C/[C@H](O[C@@H]2O[C@H](C)[C@@H](O)[C@H](N)[C@@H]2O)C[C@@H]2O[C@](O)(C[C@@H](O)C[C@H]3O[C@@H]3/C=C/C(=O)O1)C[C@H](O)[C@H]2C(=O)O [Standard natamycin, natamycin] | –
– | – | – | – | – | – | – | – | – | – | – | – | – | easily dissolve | hardly dissolve | C[C@@H]1C/C=C/C=C/C=C/C=C/[C@H](O[C@@H]2O[C@H](C)[C@@H](O)[C@H](N)[C@@H]2O)C[C@@H]2O[C@](O)(C[C@@H](O)C[C@H]3O[C@@H]3/C=C/C(=O)O1)C[C@H](O)[C@H]2C(=O)O [natamycin] | –
